Experimental findings from patent US12116343B2, “Inhibitors of APOL1 and methods of using same” (Vertex Pharmaceuticals Incorporated, priority 2020, dated 2024) are described below.

The target in the assay is T1, APOL1 G1 Protein (Homo sapiens, UniProt O14791, I384M/S342G).
T1 sequence (O14791 28-398 S342G/I384M): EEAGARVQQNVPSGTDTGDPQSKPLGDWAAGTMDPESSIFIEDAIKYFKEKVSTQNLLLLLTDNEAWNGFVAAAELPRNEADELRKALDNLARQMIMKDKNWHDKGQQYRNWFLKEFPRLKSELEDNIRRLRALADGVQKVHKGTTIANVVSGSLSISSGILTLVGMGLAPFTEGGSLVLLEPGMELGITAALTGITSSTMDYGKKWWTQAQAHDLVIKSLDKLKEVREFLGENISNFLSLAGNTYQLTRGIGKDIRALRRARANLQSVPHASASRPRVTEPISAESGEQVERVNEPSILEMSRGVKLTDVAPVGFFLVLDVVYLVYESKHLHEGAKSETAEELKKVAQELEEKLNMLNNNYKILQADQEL
Kind of assay: Trypanosoma brucei brucei lysis assay using APOL1 recombinant protein (AlamarBlue viability). In kind it is cell-based. The note with it: Trypanosoma brucei brucei lysis, recombinant APOL1, AlamarBlue; read-out: Trypanosoma Assay (IC50). The source says:
Trypanosoma brucei brucei is a blood stream parasite to which human, gorillas and baboon are immune due to the presence of the APOL1 protein in their HDL particles. The protein is uptaken by the parasite via the TbHpHb receptor located in its flagellar pocket and is bonded by the Hpr protein contained in the HDL particles which triggers the receptor endocytosis by the parasite.
Following endocytosis, the formed vesicle containing the HDL particle matures from early to late endosome, and subsequently to lysosome. The concomitant pH change in the lumen of the vesicle triggers the insertion of the APOL1 protein into the membrane of the late endosome/lysosome and hereby triggers lysosomal membrane premeabilisation and as a further downstream event, trypanosome lysis. Trypanosoma brucei brucei is sensitive to lysis by all three APOL1 variants (G0, G1, and G2).
The Trypanosoma brucei brucei lysis assay is a lysis assay of the parasite using recombinant APOL1 protein variant followed by a fluorescent detection method of viability by the addition of AlamarBlue reagent to the assay well, a general metabolic redox indicator (AlamarBlue assay).
Briefly, the AlamarBlue active compound, the resazurin, a blue, water soluble, non-toxic and cell permeable molecule, which can be followed by absorbance, is reduced by various metabolic pathways into resorufin, a red compound which can be followed by either absorbance or fluorescence. The assay allows the calculation of the percent viability (percent of living Trypanosomes remaining in each well) at the end of a lysis relative to the untreated condition by interpolation of fluorescent values (FLU) on a standard curve with a known amount of seeded trypanosome/well.
Trypanosoma brucei brucei (ATCC, Cat. No. PRA-382) • Lister 427 VSG 221 bloodstream form.
Thaw/Expansion Media (ATCC Medium 2834 Modified HMI-9 Medium)
Assay Media (No Phenol Red/No FBS): Make on Day of Use
Hypoxanthine Stock (100×)-9 (10×)
Equipment • El-Clip Tip pipette 12 channel adjustable 2-125 μL, Cat. No. 4672070BT • ThermoFisher MultiDrop 384, Cat. No. 5840300 • Multidrop • Agilent Bravo, Cat. No. G5409A • Bravo • SpectraMax M5
Assay Ready Plates (ARPs) • ARPs comes in two formats: • […] final top concentration with a 2.5 fold dilution down. • […] final top concentration with a 3 fold dilution down. • Both have a 10 point Dose response. • 0.1% DMSO final in the Black Assay Plate. • Compounds are diluted 1000 fold in the Black Assay Plate. • Each plate is designed for 14 compounds in duplicate. • In the final Black Assay Plate:
Trypanosoma brucei brucei Culture
Step 2, Day 4 • Centrifuge at 800×g for 5 minutes at room temperature. • Resuspend in 1 mL media. • Make a 1:25 fold dilution (10 μL/240 μL media). • Count on a hemocytometer (after adding parasites). • Let sit for 1-2 minutes for the parasites to settle. • Count should be approximately 100 viable motile parasites/16 grid or approximately 25×10^6 parasites/flask. • Passage the parasites by adding 1×10^6 parasites/T75 flask in 20 mL media. • Passage the parasites by adding 2.33×10^6 parasites/T175 flask in 46.6 mL media. • For every T75 flask should make enough for approximately 1.5×384 well assay plates. • For every T175 flask should make enough for approximately 3.8×384 well assay plates.
Step 3, Day 6 • Centrifuge at 800×g for 5 minutes. • Resuspend in 3 mL assay media (No phenol red, no FBS) per 75 starting flask. • Resuspend in 7 mL assay media (No phenol red, no FBS) per 175 flask • Make a 1:25 fold dilution. • Count by hemocytometer. • Every T75 flask set up should have approximately 75×10^6 parasites/flask (verify doubling time=8.7 hrs±1 hr). • Every T175 flask set up should have approximately 175×10^6 parasites/flask (verify doubling time=8.7 hrs±1 hr). • Require 46×10^6 parasites per 384 well plate (at 120,000 parasites per well). Protocol B […]
(In general: Resazurin is reduced to fluorescent resorufin, in cell work by metabolically active cells.)

Each structure is given as a SMILES string.

For orientation: IC50 means the point on the concentration scale where inhibition reaches its midpoint. Consider `Cc1noc(CNC(=O)[C@H]2C[C@H](c3c(-c4ccc(F)cc4)[nH]c4c(F)cc(F)cc43)C2)n1` [Compound 173], for which the IC50 is under 250 nM.
Under `O=C1N[C@H](CO)C[C@@H]1NC(=O)[C@H]1C[C@H](c2c(-c3ccc(F)cc3)[nH]c3c(F)cc(F)cc32)C1` [Compound 209] stands over 1000 nM; under `O=C([C@H]1C[C@H](c2c(-c3ccc(F)cc3)[nH]c3c(F)cc(F)cc32)C1)N1C[C@@H](O)[C@H](O)C1` [Compound 227], 250 to 1000 nM.
To `C[C@@H](CO)NC(=O)[C@H]1C[C@H](c2c(-c3ccc(F)cc3)[nH]c3c(F)cc(F)cc32)C1` [Compound 200] belongs under 250 nM; to `O=C1OCC[C@@H]1NC(=O)[C@H]1C[C@H](c2c(-c3ccc(F)cc3)[nH]c3c(F)cc(F)cc32)C1` [Compound 188], 250 to 1000 nM.
To `O=C([C@H]1C[C@H](c2c(-c3ccc(F)cc3)[nH]c3c(F)cc(F)cc32)C1)N1CCOC[C@H]1CO` [Compound 217] belongs 250 to 1000 nM; to `Cn1ccc(NC(=O)[C@H]2C[C@H](c3c(-c4ccc(F)cc4)[nH]c4c(F)cc(F)cc43)C2)n1` [Compound 22], 250 to 1000 nM.
Regarding `O=C([C@H]1C[C@H](c2c(-c3ccc(F)cc3)[nH]c3c(F)cc(F)cc32)C1)N1CC(CO)C1` [Compound 223], the IC50 is under 250 nM.
As for `Cc1cc(CNC(=O)[C@H]2C[C@H](c3c(-c4ccc(F)cc4)[nH]c4c(F)cc(F)cc43)C2)on1` [Compound 37], the IC50 was 250 to 1000 nM.
To `CC(C#N)(CO)NC(=O)[C@H]1C[C@H](c2c(-c3ccc(F)cc3)[nH]c3c(F)cc(F)cc32)C1` (some centres unmarked) [Compound 191] belongs under 250 nM.
Under `O=C(NCCn1cncn1)[C@H]1C[C@H](c2c(-c3ccc(F)cc3)[nH]c3c(F)cc(F)cc32)C1` [Compound 36] stands under 250 nM; under `O=C([C@H]1C[C@H](c2c(-c3ccc(F)cc3)[nH]c3c(F)cc(F)cc32)C1)N1CC[C@H]1CO` [Compound 206], under 250 nM.
To `O=C([C@H]1C[C@H](c2c(-c3ccc(F)cc3)[nH]c3c(F)cc(F)cc32)C1)N1CC[C@@H]1CO` [Compound 195] belongs under 250 nM; to `CC[C@H](CO)NC(=O)[C@H]1C[C@H](c2c(-c3ccc(F)cc3)[nH]c3c(F)cc(F)cc32)C1` [Compound 203], 250 to 1000 nM; to `CC(CO)NC(=O)[C@H]1C[C@H](c2c(-c3ccc(F)cc3)[nH]c3c(F)cc(F)cc32)C1` (mixture of isomers) [Compound 13], under 250 nM.
Consider `N#CC(CO)NC(=O)[C@H]1C[C@H](c2c(-c3ccc(F)cc3)[nH]c3c(F)cc(F)cc32)C1` (some centres unmarked) [Compound 201], for which the IC50 was under 250 nM.
Under `CC1CC(NC(=O)[C@H]2C[C@H](c3c(-c4ccc(F)cc4)[nH]c4c(F)cc(F)cc43)C2)C(=O)O1` (some centres unmarked) [Compound 207] stands over 1000 nM; under `O=C(N[C@@H]1CCOC1)[C@H]1C[C@H](c2c(-c3ccc(F)cc3)[nH]c3c(F)cc(F)cc32)C1` [Compound 19], 250 to 1000 nM; under `NC(=O)C(CO)NC(=O)[C@H]1C[C@H](c2c(-c3ccc(F)cc3)[nH]c3c(F)cc(F)cc32)C1` (some centres unmarked) [Compound 32], under 250 nM.
Consider `O=C(NC[C@@H](O)CO)[C@H]1C[C@H](c2c(-c3ccc(F)cc3)[nH]c3c(F)cc(F)cc32)C1` [Compound 224], for which the 50% inhibitory concentration (IC50) was over 1000 nM.
To `O=C(NC[C@H](O)CO)[C@H]1C[C@H](c2c(-c3ccc(F)cc3)[nH]c3c(F)cc(F)cc32)C1` [Compound 225] belongs 250 to 1000 nM; to `O=C1CN(C(=O)[C@H]2C[C@H](c3c(-c4ccc(F)cc4)[nH]c4c(F)cc(F)cc43)C2)CCN1` [Compound 228], over 1000 nM; to `CC(O)(CO)CNC(=O)[C@H]1C[C@H](c2c(-c3ccc(F)cc3)[nH]c3c(F)cc(F)cc32)C1` (mixture of isomers) [Compound 216], over 1000 nM.
As for `O=C(NC1(CO)CCOC1)[C@H]1C[C@H](c2c(-c3ccc(F)cc3)[nH]c3c(F)cc(F)cc32)C1` (some centres unmarked) [Compound 194], the IC50 is under 250 nM.
`NC(=O)[C@@H](CO)NC(=O)[C@H]1C[C@H](c2c(-c3ccc(F)cc3)[nH]c3c(F)cc(F)cc32)C1` [Compound 221]: the IC50 was under 250 nM.
Under `C[C@@H](NC(=O)[C@H]1C[C@H](c2c(-c3ccc(F)cc3)[nH]c3c(F)cc(F)cc32)C1)C(N)=O` [Compound 28] stands over 1000 nM; under `CC[C@@H](CO)NC(=O)[C@H]1C[C@H](c2c(-c3ccc(F)cc3)[nH]c3c(F)cc(F)cc32)C1` [Compound 204], under 250 nM; under `O=C(NC[C@@H](O)C(F)(F)F)[C@H]1C[C@H](c2c(-c3ccc(F)cc3)[nH]c3c(F)cc(F)cc32)C1` [Compound 177], 250 to 1000 nM.
Under `CC(C)C(CO)NC(=O)[C@H]1C[C@H](c2c(-c3ccc(F)cc3)[nH]c3c(F)cc(F)cc32)C1` (some centres unmarked) [Compound 29] stands 250 to 1000 nM; under `Cc1cnc(NC(=O)[C@H]2C[C@H](c3c(-c4ccc(F)cc4)[nH]c4c(F)cc(F)cc43)C2)o1` [Compound 24], over 1000 nM.
On to `C[C@]1(NC(=O)[C@H]2C[C@H](c3c(-c4ccc(F)cc4)[nH]c4c(F)cc(F)cc43)C2)C[C@@H](O)C1` [Compound 211], for which the IC50 lay in the range of 250 to 1000 nM.
To `CC(CO)N(C)C(=O)[C@H]1C[C@H](c2c(-c3ccc(F)cc3)[nH]c3c(F)cc(F)cc32)C1` (mixture of isomers) [Compound 193] belongs 250 to 1000 nM.
In the case of `Cn1cc(CNC(=O)[C@H]2C[C@H](c3c(-c4ccc(F)cc4)[nH]c4c(F)cc(F)cc43)C2)cn1` [Compound 38], the IC50 is 250 to 1000 nM.
Regarding `O=C(N[C@H]1COC[C@@H]1O)[C@H]1C[C@H](c2c(-c3ccc(F)cc3)[nH]c3c(F)cc(F)cc32)C1` [Compound 184], the IC50 was in the range of 250 to 1000 nM.
With `O=C(NC[C@H]1CC[C@@H](CO)O1)[C@H]1C[C@H](c2c(-c3ccc(F)cc3)[nH]c3c(F)cc(F)cc32)C1` [Compound 189], the IC50 is over 1000 nM.
For `O=C1CCC(NC(=O)[C@H]2C[C@H](c3c(-c4ccc(F)cc4)[nH]c4c(F)cc(F)cc43)C2)C(=O)N1` (some centres unmarked) [Compound 26], the IC50 is 250 to 1000 nM.
Take `O=C(NC(CO)C1CC1)[C@H]1C[C@H](c2c(-c3ccc(F)cc3)[nH]c3c(F)cc(F)cc32)C1` (some centres unmarked) [Compound 199]: the IC50 was 250 to 1000 nM.
Turning to `CS(=O)(=O)NC(=O)[C@H]1C[C@H](c2c(-c3ccc(F)cc3)[nH]c3c(F)cc(F)cc32)C1` [Compound 213], the half-inhibitory concentration (IC50) was over 1000 nM.
To `CC(CO)(CO)NC(=O)[C@H]1C[C@H](c2c(-c3ccc(F)cc3)[nH]c3c(F)cc(F)cc32)C1` [Compound 186] belongs under 250 nM; to `O=C(N[C@H]1CNC[C@@H]1O)[C@H]1C[C@H](c2c(-c3ccc(F)cc3)[nH]c3c(F)cc(F)cc32)C1` [Compound 212], 250 to 1000 nM; to `CC1(NC(=O)[C@H]2C[C@H](c3c(-c4ccc(F)cc4)[nH]c4c(F)cc(F)cc43)C2)CCNC1=O` (mixture of isomers) [Compound 197], under 250 nM.
